{"source": "patent US12091653B2", "about": "“Strain of Glutamicibacter, originating from insects, capable of efficiently degrading bifenthrin” (Anhui Agricultural University, priority 2023, dated 2024)", "system": "E. grisescens larvae", "test": "Toxicity testing of 2,4-di-tert-butylphenol in artificial food fed to E. grisescens larvae", "assay_type": "in vivo, Ectropis grisescens", "details": "100 mg/L in sterile artificial food, 48 hours", "protocol": "A stock solution of 2,4-di-tert-butylphenol (purchased from Beijing Solarbio Science & Technology Co., Ltd., HPLC≥99%) was prepared following the preparation method for bifenthrin stock solution. This stock solution was added to sterile artificial food at a final concentration of 100 mg/L. This food was used to feed 30 healthy 4-5 aged E. grisescens larvae. The control group was fed normal sterile artificial food."}
{"smiles": "CC(C)(C)c1ccc(O)c(C(C)(C)C)c1", "note": "[2,4-di-tert-butylphenol]", "values": [{"measurement": "toxicity to E. grisescens larvae", "value": "little to no toxicity"}, {"measurement": "survival rate of E. grisescens larvae", "setting": "control food 93.33%", "value": 94.45, "unit": "%"}]}
